According to US10485235B2, “Aryloxypyrimidinyl ethers as herbicides” (FMC Corporation, priority 2015, dated 2019):

Experiments:
[1] = tested on: barnyardgrass (Echinochloa crus-galli); assay: Test A preemergence, barnyardgrass; format: in vivo; settings: Echinochloa crus-galli, pre-emergence, 240 h, Preemergence, 0 to 100 scale (0 no effect, 100 complete control), read-out: Plant response rating, Barnyardgrass; for pest or weed control at 125 g/ha: 125 g ai/ha
How it was run: (§1)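 Test chemicals in a solvent/surfactant mixture were applied as a preemergence directed soil spray on seeded loam–sand, or postemergence to plants 2–10 cm tall at the one- to two-leaf stage. After roughly 10 days in a greenhouse, injury was visually rated versus untreated controls on a 0 (no effect) to 100 (complete control) scale.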

[2] = tested on: barnyardgrass (Echinochloa crus-galli); assay: Test A postemergence, barnyardgrass; format: in vivo; settings: Echinochloa crus-galli, post-emergence, 240 h, postemergence, 0 to 100 scale, 0 is no effect, 100 is complete control, approximately 10 days, read-out: Plant response rating, Barnyardgrass; for pest or weed control at 31 g/ha: 31 g ai/ha; for pest or weed control at 125 g/ha: 125 g ai/ha
How it was run: as §1

kochia (Kochia scoparia) = assay: Test A preemergence, kochia; format: in vivo; settings: Bassia scoparia, pre-emergence, 240 h, Preemergence, 0 to 100 scale (0 no effect, 100 complete control), read-out: Plant response rating, Kochia; for pest or weed control at 31 g/ha: 31 g ai/ha; for pest or weed control at 125 g/ha: 125 g ai/ha
How it was run: as §1

[3] = tested on: ducksalad (Heteranthera limosa); assay: Test B flooded paddy test, ducksalad; format: in vivo; settings: Heteranthera limosa; 250 g ai/ha, Flood; visual rating after 13 to 15 days; scale 0 to 100, 0 is no effect, 100 is complete control; read-out: Plant response rating, Ducksalad
How it was run: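 Plants grown to the 2-leaf stage; pots flooded to 3 cm above soil and compounds applied directly into the paddy water, depth held throughout. After 13 to 15 days in the greenhouse, injury was rated visually against untreated controls on a 0–100 scale (0 no effect, 100 complete control).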

[4] = tested on: ryegrass, Italian (Italian ryegrass, Lolium multiflorum); assay: Test A preemergence, Italian ryegrass; format: in vivo; settings: Lolium multiflorum, pre-emergence, 240 h, Preemergence, 0 to 100 scale (0 no effect, 100 complete control), read-out: Plant response rating, Ryegrass, Italian; for pest or weed control at 31 g/ha: 31 g ai/ha; for pest or weed control at 125 g/ha: 125 g ai/ha
How it was run: as §1

corn (Zea mays) = assay: Test A postemergence, corn; format: in vivo; settings: Zea mays, post-emergence, 240 h, postemergence, 0 to 100 scale, 0 is no effect, 100 is complete control, approximately 10 days; for Corn plant response rating (crop injury, 0 = no effect, 100 = complete kill) at 31 g/ha: 31 g ai/ha; for Corn plant response rating (crop injury, 0 = no effect, 100 = complete kill) at 125 g/ha: 125 g ai/ha
How it was run: as §1

N#Cc1cccc(Oc2ncc(Cl)cn2)c1OC/C=C/C(F)(F)F [Compound 8, 3-[(5-chloro-2-pyrimidinyl)oxy]-2-[[(2E)-4,4,4-trifluoro-2-buten-1-yl]oxy]benzonitrile]
pest or weed control at 31 g/ha ([1]; 31 g ai/ha): 30%
pest or weed control at 125 g/ha [1]: 100%
pest or weed control at 31 g/ha [2]: 20%
pest or weed control at 125 g/ha [2]: 60%
pest or weed control at 31 g/ha (kochia (Kochia scoparia)): 20%
pest or weed control at 125 g/ha (kochia (Kochia scoparia)): 100%
pest or weed control at 250 g/ha [3]: 75%
melting point: 102 to 106 °C
pest or weed control at 31 g/ha [4]: 0%
pest or weed control at 125 g/ha [4]: 30%
Corn plant response rating (crop injury, 0 = no effect, 100 = complete kill) at 31 g/ha (corn (Zea mays)): 10%
Corn plant response rating (crop injury, 0 = no effect, 100 = complete kill) at 125 g/ha (corn (Zea mays)): 20%

FC(F)(F)COc1c(I)cccc1Oc1ncc(Cl)cn1 [Compound 65]
pest or weed control at 125 g/ha [1]: 70%
pest or weed control at 31 g/ha [2]: 0%
pest or weed control at 125 g/ha [2]: 60%
pest or weed control at 31 g/ha (kochia (Kochia scoparia)): 20%
pest or weed control at 125 g/ha (kochia (Kochia scoparia)): 90%
pest or weed control at 250 g/ha [3]: 100%
melting point: 87 to 90 °C
pest or weed control at 31 g/ha [4]: 0%
pest or weed control at 125 g/ha [4]: 10%
Corn plant response rating (crop injury, 0 = no effect, 100 = complete kill) at 31 g/ha (corn (Zea mays)): 10%
Corn plant response rating (crop injury, 0 = no effect, 100 = complete kill) at 125 g/ha (corn (Zea mays)): 20%
